Earlier results, collected in patent publication US20210181185A1, “DENDRITIC CELL RECRUITMENT FROM BLOOD TO BRAIN IN NEURODEGENERATIVE DISEASE” (priority 2017, published 2021).

Conditions: free DiO

CCCCCCCCCCCCCCCCCCN1/C(=C\C=C\c2oc3ccccc3[n+]2CCCCCCCCCCCCCCCCCC)Oc2ccccc21.[O-][Cl+3]([O-])([O-])[O-] [DiO]
Clearance of free dye from blood: rapidly cleared from blood
